By EC50 is commonly meant the concentration needed to bring the measured effect to its halfway point.

Test [1] addresses T1, Toll-like receptor 8 (Homo sapiens, UniProt Q9NR97).
T1 sequence (Q9NR97 whole entry): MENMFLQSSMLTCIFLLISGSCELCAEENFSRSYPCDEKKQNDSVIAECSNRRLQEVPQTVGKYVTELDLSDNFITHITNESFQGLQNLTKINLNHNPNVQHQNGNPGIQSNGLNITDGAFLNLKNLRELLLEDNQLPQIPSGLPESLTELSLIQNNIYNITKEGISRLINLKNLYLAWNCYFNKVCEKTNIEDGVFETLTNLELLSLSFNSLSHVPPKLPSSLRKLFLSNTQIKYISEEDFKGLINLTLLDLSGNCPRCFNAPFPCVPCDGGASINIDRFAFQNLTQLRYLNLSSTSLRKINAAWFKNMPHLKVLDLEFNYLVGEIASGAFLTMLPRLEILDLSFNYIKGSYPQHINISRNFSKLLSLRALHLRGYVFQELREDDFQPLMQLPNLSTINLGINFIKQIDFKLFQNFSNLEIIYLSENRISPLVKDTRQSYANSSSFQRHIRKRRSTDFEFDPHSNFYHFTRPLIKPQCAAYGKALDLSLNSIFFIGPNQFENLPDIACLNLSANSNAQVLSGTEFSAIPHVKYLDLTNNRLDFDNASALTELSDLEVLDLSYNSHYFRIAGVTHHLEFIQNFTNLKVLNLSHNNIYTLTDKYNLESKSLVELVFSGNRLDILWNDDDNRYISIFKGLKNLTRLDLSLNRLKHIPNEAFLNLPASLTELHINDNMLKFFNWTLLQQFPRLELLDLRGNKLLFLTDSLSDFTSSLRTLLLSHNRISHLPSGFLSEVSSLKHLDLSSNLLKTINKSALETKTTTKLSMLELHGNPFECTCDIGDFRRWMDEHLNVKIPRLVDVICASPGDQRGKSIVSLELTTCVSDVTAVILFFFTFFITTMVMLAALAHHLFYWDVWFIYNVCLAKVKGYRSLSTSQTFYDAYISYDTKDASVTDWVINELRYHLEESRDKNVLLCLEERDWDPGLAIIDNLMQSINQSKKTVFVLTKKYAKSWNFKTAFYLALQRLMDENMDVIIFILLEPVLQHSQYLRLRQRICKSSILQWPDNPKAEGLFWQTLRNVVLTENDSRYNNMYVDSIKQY
In words: Agonist activity at human TLR8 in HEK-Blue hTLR8 cells incubated for 24 hrs by quanti-blue reagent based analysis. The class given is cell-based.

The target in test [2] is T2, Toll-like receptor 7 (Homo sapiens, UniProt Q9NYK1).
T2 sequence (Q9NYK1 whole entry): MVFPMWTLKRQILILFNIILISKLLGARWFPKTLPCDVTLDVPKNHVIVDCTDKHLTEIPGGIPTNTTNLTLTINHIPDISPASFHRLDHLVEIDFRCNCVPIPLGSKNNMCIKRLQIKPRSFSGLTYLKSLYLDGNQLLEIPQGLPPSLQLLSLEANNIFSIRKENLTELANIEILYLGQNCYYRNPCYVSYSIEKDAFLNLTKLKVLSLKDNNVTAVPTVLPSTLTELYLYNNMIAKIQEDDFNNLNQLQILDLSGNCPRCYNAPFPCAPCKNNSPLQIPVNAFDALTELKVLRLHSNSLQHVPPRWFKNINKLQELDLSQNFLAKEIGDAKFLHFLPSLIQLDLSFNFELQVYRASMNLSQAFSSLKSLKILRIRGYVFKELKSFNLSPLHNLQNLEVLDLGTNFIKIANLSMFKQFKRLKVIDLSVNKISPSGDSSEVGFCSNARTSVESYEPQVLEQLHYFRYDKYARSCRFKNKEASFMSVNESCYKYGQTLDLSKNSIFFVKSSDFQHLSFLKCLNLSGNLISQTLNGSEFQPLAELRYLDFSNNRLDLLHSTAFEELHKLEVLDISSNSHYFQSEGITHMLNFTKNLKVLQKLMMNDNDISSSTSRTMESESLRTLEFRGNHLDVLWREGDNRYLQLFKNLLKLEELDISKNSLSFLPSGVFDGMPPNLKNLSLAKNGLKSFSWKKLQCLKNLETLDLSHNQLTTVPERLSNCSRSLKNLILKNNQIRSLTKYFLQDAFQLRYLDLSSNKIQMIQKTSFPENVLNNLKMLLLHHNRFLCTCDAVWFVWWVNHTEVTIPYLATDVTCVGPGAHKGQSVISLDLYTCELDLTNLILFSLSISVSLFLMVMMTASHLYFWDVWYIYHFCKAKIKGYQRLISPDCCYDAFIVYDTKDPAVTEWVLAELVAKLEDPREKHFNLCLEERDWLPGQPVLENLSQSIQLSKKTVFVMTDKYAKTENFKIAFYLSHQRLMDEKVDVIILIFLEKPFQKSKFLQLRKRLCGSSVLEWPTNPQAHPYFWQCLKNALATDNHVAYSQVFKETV
In words: Agonist activity at human TLR7 in HEK-Blue hTLR7 cells incubated for 24 hrs by quanti-blue reagent based analysis. The class given is cell-based.

The target of test [3] is T3, Toll-like receptor 8 (Homo sapiens) (UniProt Q9NR97).
T3 sequence (whole entry): T1 sequence (Q9NR97 whole entry)
Briefly: Agonist activity at human TLR8 transfected in HEK293 cells incubated for 6 hrs by luciferase based analysis. Conditions: filed as agonist. Format: cell-based.

Test [4] addresses T4, Toll-like receptor 7 (Homo sapiens) (UniProt Q9NYK1).
T4 sequence (whole entry): T2 sequence (Q9NYK1 whole entry)
In words: Agonist activity at human TLR7 transfected in HEK293 cells incubated for 6 hrs by luciferase based analysis. The class given is cell-based. Conditions: filed as agonist.

Test [5] concerns the target T3, Toll-like receptor 8 (Homo sapiens). Briefly: (§1) Agonist activity at TLR8 (unknown origin).
Test [6] has as its target T4, Toll-like receptor 7 (Homo sapiens). In words: (§2) Agonist activity at TLR7 (unknown origin). Conditions: filed as agonist.
The species named for the next test is Homo sapiens. In words: Selectivity index, ratio of EC50 for agonist activity at TLR8 (unknown origin) to EC50 for agonist activity at TLR7 (unknown origin).
The target of test [7] is T1, Toll-like receptor 8. Described as §1.
For test [8], the target named is T2, Toll-like receptor 7. Described as §2.
The target of test [9] is T2, Toll-like receptor 7. In words: Agonist activity at recombinant human TLR7 transfected in HEK293 cells assessed as induction of SEAP production incubated overnight by SEAP reporter gene based assay. Format: cell-based. Background: A reporter such as luciferase makes a cellular process visible.
Test [10] addresses T1, Toll-like receptor 8. Briefly: Agonist activity at human TLR8 in HEK-Blue hTLR8 cells assessed as induction of SEAP production using nitrophenyl phosphate as substrate incubated for 20 hrs by microplate reader analysis. The class given is cell-based.

In the case of `CCCCOc1nc(N)c2[nH]c(C#N)c(Cc3cnc(CN4CCCC4)s3)c2n1`, the EC50 on Toll-like receptor 8 [1] was 293000 nM; on Toll-like receptor 7 [2] it was 454 nM.
As to `CCCC[C@@H](CO)Nc1nc(N)nc2ccsc12`, the figures for the MEC in [3] and in [4] were 0.03 µM and 0.5 µM, respectively.
With `COc1cc2cc(c1)O/C=C\CCOc1nc(N)c3nc(O)n(c3n1)C2`, the MEC is greater than 25 µM in test [5] and 0.18 µM in [6].
`CCOC(=O)C1=Cc2ccc(-c3cccc(C#N)c3)cc2N=C(N)C1`: the Ratio EC50 in the test filed under Homo sapiens came out at 500. Besides, the figures for the EC50 at Toll-like receptor 8 [7] and at Toll-like receptor 7 [8] were 15000 nM and 30 nM, respectively.
Take `CCC[C@@H](CCO)Nc1nc(N)nc(C)c1Cc1ccc(CN(C)CCO)cc1OC`: the figures for the EC50 on Toll-like receptor 7 [9] and at Toll-like receptor 8 [10] were less than 5.01 nM and 2510 nM, respectively.
As to `COc1ccc2cc1O/C=C\CCOc1nc(N)c3nc(O)n(c3n1)C2`, the MEC in [5] was greater than 25 µM; in [6], 2 µM.

Source of the values: ChEMBL document CHEMBL5244202, “Structural evolution of toll-like receptor 7/8 agonists from imidazoquinolines to imidazoles” (RSC Med Chem, 2021).
